Laboratory results from publication PMC6562672, “Dose-Dependent Sorafenib-Induced Immunosuppression Is Associated with Aberrant NFAT Activation and Expression of PD-1 in T Cells” (Cancers, 2019).
Like-named read-outs stand apart in the source and are kept apart here.

Legend:
[1] = cited from earlier work
[2] = Plasma pharmacokinetics of oral sorafenib in woodchucks (LC-MS/MS, noncompartmental analysis); type: in vivo, woodchuck (Marmota monax); conditions: for AUC / Cmax / Tmax: plasma, po; for AUC / Cmax / Tmax / Cmax/D, Geo Mean (%CV): woodchuck plasma; for Cmax: read-out: Cmax, Geo Mean (%CV); for Tmax: read-out: Tmax, Geo Mean (%CV)
Method: Woodchuck plasma study samples were analyzed for sorafenib with an LC-MS/MS assay using authentic standards of sorafenib and the internal standard (IS), d3-sorafenib, both obtained from Toronto Research Chemicals (Toronto, ON, Canada). Study samples were quantitated using calibration and quality control (QC) samples prepared by spiking sorafenib into sodium heparinized human plasma (Bioreclamation, LLC, Westbury, NY, USA). The woodchuck plasma study samples were extracted using a Quadra 4 SPE Automated Liquid Handling System (Tomtec Inc., Hamden, CT, USA) by mixing a 50 µL aliquot of a calibrator, QC, plasma blank, or study sample with 500 µL of ice cold acetonitrile containing the IS for the LC-MS/MS. LC-MS/MS analysis was performed using a Finnigan Surveyor MS Pump Plus and Thermo Pal Autosampler System interfaced with a TSQ Quantum Ultra Mass Spectrometer, all obtained from Thermo Fisher Scientific (Waltham, MA, USA). A noncompartmental pharmacokinetic analysis (NCA) was performed on individual concentration-time data using a linear trapezoidal, linear/log interpolation calculation method with uniform weighting. The software program utilized for this analysis was Phoenix 64 WinNonlin Version 6.3 (Pharsight Corp., St. Louis, MO, USA). Study sample (n = 9) concentrations that were above the lower limit of quantitation (LLOQ) of the assay (62.5 ng/mL) following dose administration (Day 1: pre-dose and 1, 3, 5, 7 and 24 h; Day 19: pre-dose and 1, 3, 5, and 7 h) were used in the NCA.
All WHV carrier woodchucks were randomly divided into three groups such as placebo, low dose (2.5 mg/kg/day), and high dose (5.0 mg/kg/day) groups (n = 5 animals/group) in a long-term efficacy study based on clinical and preclinical studies. Also, a compartmental pharmacokinetic (PK) model was used to select the two lowest doses that can achieve exposure sufficient to inhibit pharmacodynamic targets. Experimental woodchucks were treated with placebo, 2.5 mg/kg, or 5.0 mg/kg sorafenib once daily with a 5 days on and 2 days off schedule. Animals were dosed orally until tumor development. Another experiment was performed with the low (2.5 mg/kg/day) and high (5.0 mg/kg/day) dose groups (n = 3 animals/group) to see the efficacy of short-term (90 days treatment) usage of sorafenib. The primary endpoint of the in vivo study was disease free survival (DFS), and DFS was measured from the date of randomization until the date of any liver tumor detection. The secondary endpoint was tumor size over 2 cm, which was measured from the date of first tumor detection. All experimental protocols were approved by IACUC.

NFAT1 = NFAT1 nuclear translocation in T cells by imaging flow cytometry (similarity score); type: cell-based, human; conditions: for nuclear translocation of NFAT1: non-stimulated CD8+ T cells
Method: PBMCs were allowed to ‘recover’ in AIM-V medium (Thermo Fisher Scientific) at 37 °C, 5% CO2 in a humidified atmosphere overnight. 2 × 10^6 cells were treated with 0–10 µM sorafenib for the durations specified in the results section. If the experimental conditions required T cell stimulation, samples were co-treated (stimulated) with 1 µg/mL anti-CD3 and 1 µg/mL anti-CD28 for 2 h. Following treatment, PBMCs were placed on ice to stop drug action and immunophenotyped for CD4, CD8, CD25, and PD-1 (CD279). NFAT1 was detected by indirect labeling. Antibodies were diluted in permeabilization wash buffer (PWB) consisting of 0.1% Triton-X-100 in FCM Buffer (1× phosphate buffered saline (PBS) + 0.5%BSA). The primary Rabbit polyclonal NFAT1 antibody was diluted 1:50 in PWB. Following this, 1:200 dilution of secondary AF647 conjugated F(ab’)2 fragment donkey anti rabbit IgG antibody (Jackson ImmunoResearch Laboratories Inc., West Grove, PA, USA) was added. Just prior to data acquisition on the ImageStream, DAPI was added to all samples (0.5 µg/mL final concentration), to stain the nucleus.
Imaging flow cytometry acquisition, compensation, and analysis was performed on an imaging flow cytometer (ImagestreamX Mk-II; Amnis, part of MilliporeSigma, Seattle, WA, USA) as described previously. Following compensation for spectral overlap, image analysis was performed with IDEAS® software (Amnis, Seattle, WA, USA). To assess nuclear NFAT1 translocation, the corresponding nuclear image and NFAT1 image of each cell was compared and a Similarity Score (SS) was assigned for individual cells using published methods (Figure S3).

HCC = experiment: Tumor histology: H&E necrosis and CD3 immunohistochemistry; type: in vivo, woodchuck (Marmota monax)
Method: Tumor specimens were diagnosed as HCC based on the established classification of neoplastic liver lesions. After standard processing and embedding in paraffin, 4 μm sections were prepared, deparaffinized, stained with hematoxylin-eosin (H&E), studied with a Zeiss Axio Imager A1 microscope (Carl Zeiss, Oberkochen, Germany) by a pathologist blinded to the treatment arm. Morphometric study of areas of necrosis was compared to the size of the tumor sections by counting view fields at medium objective magnification. IHC staining with mouse anti-rat CD3 (BD Biosciences, San Jose, CA, USA) was performed on […] paraffin sections of posttreatment tumor tissues obtained after tumor reached over 2 cm. Images of at least 7 randomly selected fields (unit area of each field, 0.34 mm^2) were captured by observers blinded to sample identity. Identical exposure times and image settings were used within each experiment. Images were analyzed with ImageJ software (http://rsb.info.nih.gov/ij, Bethesda, MD, USA).

[3] = 2.5 mg/kg, oral 2.5 mg/kg, Day 1
[4] = 2.5 mg/kg, oral 2.5 mg/kg, Day 19
[5] = 5 mg/kg, oral 5.0 mg/kg, Day 19

SMILES: CNC(=O)c1cc(Oc2ccc(NC(=O)Nc3ccc(Cl)c(C(F)(F)F)c3)cc2)ccn1 [sorafenib, Sorafenib]
- plasma concentration of sorafenib in clinical trials ([1]; clinical trials): approximately 2 mg/L
- plasma concentration of sorafenib in clinical trials ([1]; conversion of 2 mg/L): 4 µM
- time to steady-state concentrations ([1]; patients, multiple oral dosing): 7 days
- Cmax/D of high dose group relative to low dose group ([2]; 5.0 vs 2.5 mg/kg, Day 1): ~ 8 times
- Cmax/D of high dose group compared with low dose group ([2]; 5.0 vs 2.5 mg/kg, Day 19): the same
- AUC ([2]; 2.5 mg/kg, oral 2.5 mg/kg, Day 1, read-out: AUC1–7 h, Geo Mean (%CV)): 588 ng·h/mL
- AUC ([2]; 2.5 mg/kg, oral 2.5 mg/kg, Day 1, read-out: AUCAll, Geo Mean (%CV)): 2600 ng·h/mL
- Cmax [2, 3]: 136 ng/mL
- Tmax [2, 3]: 5.92 h
- AUC ([2]; 2.5 mg/kg, oral 2.5 mg/kg, Day 19, read-out: AUC1–7 h, Geo Mean (%CV)): 26800 ng·h/mL
- AUC ([2]; 2.5 mg/kg, oral 2.5 mg/kg, Day 19, read-out: AUCAll, Geo Mean (%CV)): 30300 ng·h/mL
- Cmax [2, 4]: 4970 ng/mL
- Tmax [2, 4]: 4.22 h
- AUC ([2]; 5 mg/kg, oral 5.0 mg/kg, Day 1, read-out: AUC1–7 h, Geo Mean (%CV)): 5960 ng·h/mL
- AUC ([2]; 5 mg/kg, oral 5.0 mg/kg, Day 1, read-out: AUCAll, Geo Mean (%CV)): 21000 ng·h/mL
- Cmax ([2]; 5 mg/kg, oral 5.0 mg/kg, Day 1): 1170 ng/mL
- Tmax ([2]; 5 mg/kg, oral 5.0 mg/kg, Day 1): 3.98 h
- AUC ([2]; 5 mg/kg, oral 5.0 mg/kg, Day 19, read-out: AUC1–7 h, Geo Mean (%CV)): 39100 ng·h/mL
- Cmax [2, 5]: 7380 ng/mL
- Tmax [2, 5]: 3.98 h
- Cmax/D, Geo Mean (%CV) ([2]; oral 2.5 mg/kg, Day 1): 2, 54.4 (3.41) (ng/mL)/(mg/kg)
- Cmax/D, Geo Mean (%CV) ([2]; oral 2.5 mg/kg, Day 19): 3, 1990 (19.8) (ng/mL)/(mg/kg)
- Cmax/D, Geo Mean (%CV) ([2]; oral 5.0 mg/kg, Day 1): 3, 433 (75.8) (ng/mL)/(mg/kg)
- Cmax/D, Geo Mean (%CV) ([2]; oral 5.0 mg/kg, Day 19): 3, 2000 (54.5) (ng/mL)/(mg/kg)
- nuclear translocation of NFAT1 (NFAT1; 10 µM, 1 h exposure): no significant increase
- nuclear translocation of NFAT1 (NFAT1; 10 µM, 4 h exposure): most significant increase
- effect on PMA/ionomycin-induced T cell stimulation (NFAT1) (NFAT1; 10 µM, PMA/ionomycin stimulation, lesser extent than CD3/CD28): inhibitory effect
- baseline activity of NFAT1 in T cells (NFAT1; 10 µM, absence of CD3/CD28 stimulation): significantly increased
- anti-CD3/CD28-induced NFAT1 activity (NFAT1; 10 µM, presence of CD3/CD28 stimulation): significantly inhibited
- NFAT1 activation in PD-1+ cells (NFAT1; high dose (10 µM), PD-1+ T cells): increased
- NFAT1 activation (NFAT1; lower doses of sorafenib, absence of exogenous stimulatory factors): not observed
- necrotic change of HCC (H&E) (HCC; high dose vs placebo, tumor over 2 cm, p = 0.02): significantly large necrotic change
- necrotic change of HCC (H&E) (HCC; high vs low dose, p = 0.07): no statistical difference
- CD3+ cell infiltration in tumors (HCC; low dose compared to high dose): More CD3+ cells
- CD3+ cell infiltration in tumors (HCC; low dose vs placebo): no statistical difference
